Measurements as given in PubChem BioAssay (NCI).
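Briefly, cells in 96-well plates were exposed to five compound concentrations for 48 h, and endpoints were estimated by linear interpolation. At the TGI there is no net growth.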

What was measured:
Test in all cases: DTP human tumour cell line panel, 48 h
MDA-MB-231 breast = tested on: MDA-MB-231 breast
UACC-257 melanoma = tested on: UACC-257 melanoma
HCT-116 colon = tested on: HCT-116 colon
SNB-19 CNS = tested on: SNB-19 CNS
HOP-62 NSCLC = tested on: HOP-62 NSCLC
SK-OV-3 ovarian = tested on: SK-OV-3 ovarian
SF-295 CNS = tested on: SF-295 CNS
SF-268 CNS = tested on: SF-268 CNS
NCI-H460 lung = tested on: NCI-H460 lung
LOX IMVI melanoma = tested on: LOX IMVI melanoma
UACC-62 melanoma = tested on: UACC-62 melanoma
CCRF-CEM leukemia = tested on: CCRF-CEM leukemia
NCI/ADR-RES ovarian = tested on: NCI/ADR-RES ovarian
NCI-H23 lung = tested on: NCI-H23 lung
OVCAR-5 ovarian = tested on: OVCAR-5 ovarian
NCI-H226 lung = tested on: NCI-H226 lung
MCF7 breast = tested on: MCF7 breast
MDA-N = tested on: MDA-N
OVCAR-8 ovarian = tested on: OVCAR-8 ovarian
CAKI-1 renal = tested on: CAKI-1 renal
OVCAR-4 ovarian = tested on: OVCAR-4 ovarian
SK-MEL-5 melanoma = tested on: SK-MEL-5 melanoma
K-562 leukemia = tested on: K-562 leukemia
SR leukemia = tested on: SR leukemia
T-47D breast = tested on: T-47D breast
ACHN renal = tested on: ACHN renal
HCT-15 colon = tested on: HCT-15 colon
SN12C renal = tested on: SN12C renal
PC-3 prostate = tested on: PC-3 prostate
HCC-2998 colon = tested on: HCC-2998 colon
A549 NSCLC = tested on: A549 NSCLC
A498 renal = tested on: A498 renal
HOP-92 NSCLC = tested on: HOP-92 NSCLC
SK-MEL-28 melanoma = tested on: SK-MEL-28 melanoma
COLO 205 colon = tested on: COLO 205 colon
DU-145 prostate = tested on: DU-145 prostate
MDA-MB-435 = tested on: MDA-MB-435
OVCAR-3 ovarian = tested on: OVCAR-3 ovarian
HL-60(TB) leukemia = tested on: HL-60(TB) leukemia
EKVX NSCLC = tested on: EKVX NSCLC
M14 melanoma = tested on: M14 melanoma
KM12 colon = tested on: KM12 colon
UO-31 renal = tested on: UO-31 renal
786-0 renal = tested on: 786-0 renal
SK-MEL-2 melanoma = tested on: SK-MEL-2 melanoma
HS 578T breast = tested on: HS 578T breast
MOLT-4 leukemia = tested on: MOLT-4 leukemia
RPMI-8226 leukemia = tested on: RPMI-8226 leukemia
SW-620 colon = tested on: SW-620 colon
U251 CNS = tested on: U251 CNS
SNB-75 CNS = tested on: SNB-75 CNS
RXF 393 renal = tested on: RXF 393 renal
SF-539 CNS = tested on: SF-539 CNS
NCI-H522 lung = tested on: NCI-H522 lung
BT-549 breast = tested on: BT-549 breast
MALME-3M melanoma = tested on: MALME-3M melanoma
TK-10 renal = tested on: TK-10 renal
HT29 colon = tested on: HT29 colon

COC(CC1(/C=C/O[Si](C(C)C)(C(C)C)C(C)C)C(=O)N(C)c2ccccc21)OC (stereo unspecified)
TGI (MDA-MB-231 breast): > 100 µM | TGI (UACC-257 melanoma): > 100 µM | TGI (HCT-116 colon): > 100 µM | TGI (SNB-19 CNS): > 100 µM | TGI (HOP-62 NSCLC): > 100 µM | TGI (SK-OV-3 ovarian): > 100 µM | TGI (SF-295 CNS): > 100 µM | TGI (SF-268 CNS): > 100 µM | TGI (NCI-H460 lung): > 100 µM | TGI (LOX IMVI melanoma): > 100 µM | TGI (UACC-62 melanoma): > 100 µM | TGI (CCRF-CEM leukemia): > 100 µM | TGI (NCI/ADR-RES ovarian): 78.4 µM | TGI (NCI-H23 lung): > 100 µM | TGI (OVCAR-5 ovarian): > 100 µM | TGI (NCI-H226 lung): 90 µM | TGI (MCF7 breast): > 100 µM | TGI (MDA-N): > 100 µM | TGI (OVCAR-8 ovarian): > 100 µM | TGI (CAKI-1 renal): > 100 µM | TGI (OVCAR-4 ovarian): > 100 µM | TGI (SK-MEL-5 melanoma): > 100 µM | TGI (K-562 leukemia): > 100 µM | TGI (SR leukemia): > 100 µM | TGI (T-47D breast): > 100 µM | TGI (ACHN renal): > 100 µM | TGI (HCT-15 colon): > 100 µM | TGI (SN12C renal): > 100 µM | TGI (PC-3 prostate): > 100 µM | TGI (HCC-2998 colon): > 100 µM | TGI (A549 NSCLC): > 100 µM | TGI (A498 renal): > 100 µM | TGI (HOP-92 NSCLC): > 100 µM | TGI (SK-MEL-28 melanoma): > 100 µM | TGI (COLO 205 colon): > 100 µM | TGI (DU-145 prostate): > 100 µM | TGI (MDA-MB-435): > 100 µM | TGI (OVCAR-3 ovarian): > 100 µM | TGI (HL-60(TB) leukemia): > 100 µM | TGI (EKVX NSCLC): > 100 µM | TGI (M14 melanoma): > 100 µM | TGI (KM12 colon): > 100 µM | TGI (UO-31 renal): > 100 µM | TGI (786-0 renal): 71.6 µM | TGI (SK-MEL-2 melanoma): > 100 µM | TGI (HS 578T breast): 45.2 µM | TGI (MOLT-4 leukemia): > 100 µM | TGI (RPMI-8226 leukemia): > 100 µM | TGI (SW-620 colon): > 100 µM | TGI (U251 CNS): > 100 µM | TGI (SNB-75 CNS): > 100 µM | TGI (RXF 393 renal): > 100 µM

O=C(O)c1cc(/C=C/c2cc(O)ccc2O)ccc1O
TGI (MDA-MB-231 breast): > 10 µM | TGI (UACC-257 melanoma): > 10 µM | TGI (SNB-19 CNS): > 10 µM | TGI (SF-295 CNS): > 10 µM | TGI (SF-268 CNS): > 10 µM | TGI (NCI-H460 lung): > 10 µM | TGI (LOX IMVI melanoma): > 10 µM | TGI (UACC-62 melanoma): > 10 µM | TGI (CCRF-CEM leukemia): > 10 µM | TGI (SF-539 CNS): > 10 µM | TGI (NCI/ADR-RES ovarian): > 10 µM | TGI (NCI-H23 lung): > 10 µM | TGI (OVCAR-5 ovarian): > 10 µM | TGI (NCI-H226 lung): > 10 µM | TGI (MCF7 breast): > 10 µM | TGI (MDA-N): > 10 µM | TGI (OVCAR-8 ovarian): > 10 µM | TGI (OVCAR-4 ovarian): > 10 µM | TGI (NCI-H522 lung): > 10 µM | TGI (K-562 leukemia): > 10 µM | TGI (BT-549 breast): > 10 µM | TGI (MALME-3M melanoma): > 10 µM | TGI (SR leukemia): > 10 µM | TGI (TK-10 renal): > 10 µM | TGI (ACHN renal): > 10 µM | TGI (HCT-15 colon): > 10 µM | TGI (SN12C renal): > 10 µM | TGI (PC-3 prostate): > 10 µM | TGI (HCC-2998 colon): > 10 µM | TGI (A549 NSCLC): > 10 µM | TGI (DU-145 prostate): > 10 µM | TGI (MDA-MB-435): > 10 µM | TGI (OVCAR-3 ovarian): > 10 µM | TGI (HL-60(TB) leukemia): > 10 µM | TGI (EKVX NSCLC): > 10 µM | TGI (M14 melanoma): > 10 µM | TGI (UO-31 renal): > 10 µM | TGI (786-0 renal): > 10 µM | TGI (SK-MEL-2 melanoma): > 10 µM | TGI (HS 578T breast): > 10 µM | TGI (MOLT-4 leukemia): > 10 µM | TGI (HT29 colon): > 10 µM | TGI (SW-620 colon): > 10 µM | TGI (U251 CNS): > 10 µM
